# Tests used:
# [1] = tested on: CD4+ or CD8+ T cells from wt- or DD1α−/− mice; test: Mouse T cell activation assay (CFSE proliferation); assay type: cell-based
# Procedure: Enriched CD4+ and CD8+ T cells from Wt and DD1α−/− mice were stimulated, with 2.5 μg/ml anti-CD3 alone or together with DD1α-Ig or control Ig. The proliferations of CD4+ T cells (top graphs) or CD8+ T cells (bottom graphs) were determined by the percentage of CFSE-diluted CD8+ cells on day 3. The levels of cytokines (IFN-γ and TNF-α) in culture supernatant on day 2 were analyzed by ELISA. The results represent mean±SD from three experiments.
# The inventors have discovered that DD1αregulates T cell activation through DD1α on T cells. […] The proliferations of CD4+ T cells were determined by percentage of CFSE-diluted CD4+ cells on day 3 and IFN-γ and levels in culture supernatants on day 2 were analyzed by ELISA. […] The proliferations of CD8+ T cells were determined by percentage of CD8+ T cells containing diluted CFSE signal on day 3. The cytokine levels in culture supernatant were analyzed by ELISA on day 2.
# The amount of Ig protein was kept constant at 10 μg/ml by the addition of control Ig protein. Human CD4+ or CD8+ T cells were purified from freshly isolated PBMCs using CD4+ T Cell Isolation Kit II, human or CD8+ T Cell Isolation Kit, human (Miltenyi Biotec). Mouse CD4+ and CD8+ T cells were purified from splenocytes freshly isolated from mice using CD4+ T Cell Isolation Kit II, mouse or CD8a+ T Cell Isolation Kit II, mouse (Miltenyi Biotec). Purity was confirmed to be over 90% by flow cytometry. The T cells were labeled with 1 μM CFSE, quenched by cold FBS and incubated in the anti-CD3 & Ig proteins-coated plates. On day 2 after stimulation, supernatant was collected and cytokines were assayed by ELISA. On day 3, cells were stained with anti-CD4-APC (OKT4, eBioscience for human CD4+ T cells; RM4-5, eBioscience for mouse CD4+ T cells) or anti-CD8-APC (SK1, eBioscience for human CD8+ T cells; 53-6.7, eBioscience for mouse CD8+ T cells) and then analyzed for CFSE dilution by flow cytometry.
# [2] = tested on: wt- or DD1α−/− mouse CD4+ T cells; test: Ig fusion protein binding to CD4+ T cells from Wt and DD1α−/− mice
# Procedure: FIGS. 6A-6E show physical association of DD1α with PD1 but not with PD-L1. (FIG. 6A) Interaction of DD1α with PD1 or DD1α. […] The bound Ig fusion proteins were detected with anti-Ig-APC. Empty vector (pcDNA3.1)-transfected cells stained with Ig proteins are shown as a negative control (gray filled) and other staining is shown as black open. (FIG. 6B) DD1α binds to both DD1α and PD1 on CD4+ T cells. Purified CD4+ T cells from Wt and DD1α−/− mice were assayed for binding to Ig fused DD1α or PD1 proteins. Cells were incubated with DD1α-Ig (open), PD1-Ig (open), or control Ig proteins (gray filled) and the bound Ig fusion proteins were detected by anti-Ig-APC. […] The bound Ig fusion proteins were detected by anti-Ig-APC. Binding amounts were determined by percentage of APC positive cells compared to control Ig protein-bound cells. (FIG. 6C) Ig-pulldown experiments show DD1α interaction with both DD1α and PD1. […] The bead bound proteins were eluted and determined by western blot analysis using anti-HA antibody (asterisks). […] The bead bound proteins were eluted and detected by western blot analysis with anti-DD1α or anti-PD1 antibody (asterisk). […] The levels of indicated proteins were analyzed by western blot analysis. Total RNAs from control siRNA or p53 siRNA transfected MCF7 cells were assessed for mRNA levels of PD1 or PD-L1 by real-time quantitative PCR. […]
substance,measurement,setting,value
DD1α-Ig: the extracellular region of DD1α fused with the immunoglobulin G Fc segment,inhibition of anti-CD3-induced CD4+ or CD8+ T cell proliferation,[1]; DD1α−/− CD4+ or CD8+ T cells,~30%
same,inhibition of anti-CD3-induced CD4+ or CD8+ T cell proliferation,[1]; T cells from wt mice,~50%
same,mouse CD4+ and CD8+ T cell activation,[1]; dose-dependent,inhibitory effect
same,binding to the surface of DD1α−/− CD4+ T cells compared with wt-CD4+ T cells,[2],significantly lower
